Test results as given in ChEMBL document CHEMBL1138221, “Synthesis and evaluation of multisubstrate bicyclic pyrimidine nucleoside inhibitors of human thymidine phosphorylase” (J Med Chem, 2006).

Assay: Stability in acidic buffer at pH 1.0 in 37 degC
Format: physicochemical
Settings: for Stability: buffer

half-life (acidic buffer) [h]	Stability	SMILES
98		Cc1cn([C@@H]2O[C@H](CO)[C@H]3O[C@@H](CP(=O)(O)O)O[C@H]32)c(=O)[nH]c1=O
	Stable	Cc1cn([C@@H]2O[C@H](CO)[C@H]3C[C@H](CP(=O)(O)O)O[C@H]32)c(=O)[nH]c1=O
	Stable	Cc1cn([C@@H]2O[C@H](CO)[C@H]3C[C@@H](CP(=O)(O)O)O[C@H]32)c(=O)[nH]c1=O
	Stable	Cc1cn([C@@H]2O[C@H](CO)[C@H]3O[C@@H](CP(=O)(O)O)C[C@H]32)c(=O)[nH]c1=O
